system: HeLa cervical carcinoma cell line; assay: Cellular cytotoxicity assay (Alamar Blue / Resazurin); assay type: cell-based; conditions: Homo sapiens; HeLa cells, 48 hours incubation; read-out: IC50 (anti-proliferative/cytotoxic potency)
Protocol: The anti-proliferative activity of the histone deacetylase inhibitory compounds as described herein, is evaluated with the HeLa cervical carcinoma cell line (ATCC CCL2) using the Alamar Blue (Resazurin) cell viability assay (O'Brien et al. Eur J Biochem 267, 5421-5426, 2000). Resazurin is reduced to the fluorescent resorufin by cellular dehydrogenase activity, correlating with viable, proliferating cells. Test compounds are dissolved as 10 mM solutions in dimethylsulfoxide (DMSO) and subsequently diluted in semi-logarithmic steps. HeLa cells are seeded into 96 well flat bottom plates at a density of 3000 cells per well in a volume of 200 μl per well. 24 hours after seeding 1 μl each of the compound dilutions are added into each well of the 96 Well plate. Each compound dilution is tested as quadruplicates. Wells containing untreated control cells are filled with 200 μl DMEM medium containing 0.5% v:v DMSO. The cells are then incubated with the substances for 48 hours at 37° C. in a humidified atmosphere containing 5% carbon dioxide. To determine the viability of the cells, 20 μl of an Resazurin solution (Sigma; 90 mg/l) are added. After 4 hours incubation at 37° C. the fluorescence is measured at an extinction of 544 nm and an emission of 590 nm. For the calculation of the cell viability the emission value from untreated cells is set as 100% viability and the emission rates of treated cells are set in relation to the values of untreated cells. Viabilites are expressed as % values. The corresponding IC50 values of the compounds for cytotoxic activity are determined from the concentration-effect curves by means of non-linear regression.

| Compound | IC50 |
| --- | --- |
| COc1ccc(-c2ccc(S(=O)(=O)n3ccc(/C=C/C(=O)NO)c3)cc2)cc1 [Compound 82, (E)-N-Hydroxy-3-[1-(4′-methoxy-biphenyl-4-sulfonyl)-1H-pyrrol-3-yl]-acrylamide] | 0.014 to 6.7 µM |
| CN(C)Cc1ccc(-c2ccc(S(=O)(=O)n3ccc(/C=C/C(=O)Nc4ccccc4N)c3)s2)cc1 [Compound 95, (E)-N-(2-Amino-phenyl)-3-{1-[5-(4-dimethylaminomethyl-phenyl)-thiophene-2-sulfonyl]-1H-pyrrol-3-yl}-acrylamide] | 0.014 to 6.7 µM |
| CS(=O)(=O)Nc1ccc(-c2cccc(S(=O)(=O)n3ccc(/C=C/C(=O)Nc4ccccc4N)c3)c2)cc1 [Compound 101, (E)-N-(2-Amino-phenyl)-3-[1-(4′-methanesulfonylamino-biphenyl-3-sulfonyl)-1H-pyrrol-3-yl]-acrylamide] | 0.014 to 6.7 µM |
| NCc1ccc(-c2ccccc2)cc1S(=O)(=O)n1ccc(/C=C/C(=O)NO)c1 [Compound 91, (E)-3-[1-(4-Aminomethyl-biphenyl-3-sulfonyl)-1H-pyrrol-3-yl]-N-hydroxy-acrylamide] | 0.014 to 6.7 µM |
| O=C(/C=C/c1ccn(S(=O)(=O)c2ccc(-c3ccc(OCCCN4CCOCC4)cc3)cc2)c1)NO [Compound 78, (E)-N-Hydroxy-3-{1-[4′-(3-morpholin-4-yl-propoxy)-biphenyl-4-sulfonyl]-1H-pyrrol-3-yl}-acrylamide] | 0.014 to 6.7 µM |
| CN1CCN(CCOc2ccc(-c3ccc(S(=O)(=O)n4ccc(/C=C/C(=O)NO)c4)cc3)cc2)CC1 [Compound 76, (E)-N-Hydroxy-3-(1-{4′-[2-(4-methyl-piperazin-1-yl)-ethoxy]-biphenyl-4-sulfonyl}-1H-pyrrol-3-yl)-acrylamide] | 0.014 to 6.7 µM |
| CN1CCN(CCCOc2cccc(-c3ccc(S(=O)(=O)n4ccc(/C=C/C(=O)NO)c4)cc3)c2)CC1 [Compound 73, (E)-N-Hydroxy-3-(1-{3′-[3-(4-methyl-piperazin-1-yl)-propoxy]-biphenyl-4-sulfonyl}-1H-pyrrol-3-yl)-acrylamide] | 0.014 to 6.7 µM |
| CN1CCC(CCOc2ccc(-c3ccc(S(=O)(=O)n4ccc(C=CC(=O)NO)c4)cc3)cc2)CC1 [Compound 68, (E)-N-Hydroxy-3-(1,4′-[2-(1-methyl-piperidin-4-yl)-ethoxy]biphenyl-4-sulfonyl)-1H-pyrrol-3-yl)-acrylamide] | 0.014 to 6.7 µM |
| NCc1cccc(-c2ccc(S(=O)(=O)n3ccc(/C=C/C(=O)NO)c3)s2)c1 [Compound 94, (E)-3-{1-[5-(3-Aminomethyl-phenyl)-thiophene-2-sulfonyl]-1H-pyrrol-3-yl}-N-hydroxy-acrylamide] | 0.014 to 6.7 µM |
| O=C(/C=C/c1ccn(S(=O)(=O)c2ccc(-c3ccc4c(c3)CCO4)cc2)c1)NO [Compound 70, (E)-3-{1-[4-(2,3-Dihydro-benzofuran-5-yl)-benzenesulfonyl]-1H-pyrrol-3-yl}-N-hydroxy-acrylamide] | 0.014 to 6.7 µM |
| CN(C)S(=O)(=O)c1ccc(-c2ccc(S(=O)(=O)n3ccc(/C=C/C(=O)NO)c3)s2)cc1 [Compound 100, (E)-3-{1-[5-(4-Dimethylsulfamoyl-phenyl)-thiophene-2-sulfonyl]-1H-pyrrol-3-yl}-N-hydroxy-acrylamide] | 0.014 to 6.7 µM |
| CN(C)Cc1ccc(-c2ccc(S(=O)(=O)n3ccc(/C=C/C(=O)Nc4ccccc4N)c3)cn2)cc1 [Compound 89, (E)-N-(2-Amino-phenyl)-3-{1-[6-(4-dimethylaminomethyl-phenyl)-pyridine-3-sulfonyl]-1H-pyrrol-3-yl}-acrylamide] | 0.014 to 6.7 µM |
| CN(C)Cc1cccc(-c2ccc(S(=O)(=O)n3ccc(/C=C/C(=O)Nc4ccccc4N)c3)cc2)c1 [Compound 96, (E)-N-(2-Amino-phenyl)-3-[1-(3′-dimethylaminomethyl-biphenyl-4-sulfonyl)-1H-pyrrol-3-yl]-acrylamide] | 0.014 to 6.7 µM |
| O=C(/C=C/c1ccn(S(=O)(=O)c2ccc(-c3ccc(N4CCOCC4)cc3)cc2)c1)NO [Compound 71, (E)-N-Hydroxy-3-[1-(4′-morpholin-4-yl-biphenyl-4-sulfonyl)-1H-pyrrol-3-yl]-acrylamide] | 0.014 to 6.7 µM |
| O=C(/C=C/c1ccn(S(=O)(=O)c2ccc(-c3cccc(OCCCN4CCOCC4)c3)cc2)c1)NO [Compound 74, (E)-N-Hydroxy-3-{1-[3′-(3-morpholin-4-yl-propoxy)-biphenyl-4-sulfonyl]-1H-pyrrol-3-yl}-acrylamide] | 0.014 to 6.7 µM |
| CS(=O)(=O)NCc1ccc(-c2ccc(S(=O)(=O)n3ccc(/C=C/C(=O)Nc4ccccc4N)c3)cc2)cc1 [Compound 98, (E)-N-(2-Amino-phenyl)-3-{1-[4′-(methanesulfonylamino-methyl)biphenyl-4-sulfonyl]-1H-pyrrol-3-yl}-acrylamide] | 0.014 to 6.7 µM |

| Compound | IC50 |
| --- | --- |
| Nc1cccc(-c2ccc(S(=O)(=O)n3ccc(/C=C/C(=O)NO)c3)cc2)c1 [Compound 66, (E)-3-[1-(3′-Amino-biphenyl-4-sulfonyl)-1H-pyrrol-3-yl]-N-hydroxy-acrylamide] | 0.014 to 6.7 µM |
| O=C(/C=C/c1ccn(S(=O)(=O)c2ccc(-c3cccc(OCCCN4CCCC4)c3)cc2)c1)NO [Compound 72, (E)-N-Hydroxy-3-{1-[3′-(3-pyrrolidin-1-yl-propoxy)-biphenyl-4-sulfonyl]-1H-pyrrol-3-yl}-acrylamide] | 0.014 to 6.7 µM |
| Nc1ccccc1NC(=O)/C=C/c1ccn(S(=O)(=O)c2ccc(-c3ccc(OCCN4CCCC4)cc3)cc2)c1 [Compound 108, (E)-N-(2-Amino-phenyl)-3-{1-[4′-(2-pyrrolidin-1-yl-ethoxy)-biphenyl 4-sulfonyl]-1H-pyrrol-3-yl}-acrylamide] | 0.014 to 6.7 µM |
| O=C(/C=C/c1ccn(S(=O)(=O)c2ccc(-c3ccc(OCCCN4CCCC4)cc3)cc2)c1)NO [Compound 81, (E)-N-Hydroxy-3-{1-[4′-(3-pyrrolidin-1-yl-propoxy)-biphenyl-4-sulfonyl]-1H-pyrrol-3-yl}-acrylamide] | 0.014 to 6.7 µM |
| CN(C)Cc1ccc(-c2ccc(S(=O)(=O)n3ccc(/C=C/C(=O)NO)c3)cn2)cc1 [Compound 105, (E)-3-{1-[6-(4-Dimethylaminomethyl-phenyl)-pyridine-3-sulfonyl]-1H-pyrrol-4-yl}-N-hydroxy-acrylamide] | 0.014 to 6.7 µM |
| O=C(/C=C/c1ccn(S(=O)(=O)c2ccc(-c3cccc(CN4CCOCC4)c3)cc2)c1)NO [Compound 64, (E)-N-Hydroxy-3-[1-(3′-morpholin-4-ylmethyl-biphenyl-4-sulfonyl)-1H-pyrrol-3-yl]-acrylamide] | 0.014 to 6.7 µM |
| CN1CCN(c2cc(-c3ccc(S(=O)(=O)n4ccc(/C=C/C(=O)NO)c4)cn3)ccn2)CC1 [Compound 103, (E)-N-Hydroxy-3-{1-[2′-(4-methyl-piperazin-1-yl)-[2,4′]bipyridinyl-5-sulfonyl]-1H-pyrrol-3-yl}-acrylamide] | 0.014 to 6.7 µM |
| Cn1cc(-c2ccc(S(=O)(=O)n3ccc(/C=C/C(=O)Nc4ccccc4N)c3)s2)cn1 [Compound 104, (E)-N-(2-Amino-phenyl)-3-{1-[5-(1-methyl-1H-pyrazol-4-yl)-thiophene-2-sulfonyl]-1H-pyrrol-3-yl}-acrylamide] | 0.014 to 6.7 µM |
| O=C(/C=C/c1ccn(S(=O)(=O)c2ccc(-c3ccc(CNC4CCCC4)cc3)cc2)c1)NO [Compound 84, (E)-3-[1-(4′-Cyclopentylaminomethyl-biphenyl-4-sulfonyl)-1H-pyrrol-3-yl]-N-hydroxy-acrylamide] | 0.014 to 6.7 µM |
| O=C(/C=C/c1ccn(S(=O)(=O)c2ccc(-c3ccc4c(c3)OCO4)cc2)c1)NO [Compound 65, (E)-3-[1-(4-Benzo[1,3]dioxol-5-yl-benzenesulfonyl)-1H-pyrrol-3-yl]-N-hydroxy-acrylamide] | 0.014 to 6.7 µM |
| Cc1nc(-c2ccc(S(=O)(=O)n3ccc(/C=C/C(=O)NO)c3)s2)cs1 [Compound 90, (E)-N-Hydroxy-3-{1-[5-(2-methyl-thiazol-4-yl)-thiophene-2-sulfonyl]-1H-pyrrol-3-yl}-acrylamide] | 0.014 to 6.7 µM |
| O=C(/C=C/c1ccn(S(=O)(=O)c2ccc(-c3ccc(OCCN4CCCC4)cc3)nc2)c1)NO [Compound 92, (E)-N-Hydroxy-3-(1-{6-[4-(2-pyrrolidin-1-yl-ethoxy)-phenyl]-pyridine-3-sulfonyl}-1H-pyrrol-3-yl)-acrylamide] | 0.014 to 6.7 µM |
| O=C(/C=C/c1ccn(S(=O)(=O)c2ccc(-c3cn(CCN4CCOCC4)nn3)cc2)c1)NO [Compound 83, (E)-N-Hydroxy-3-(1-{4-[1-(2-morpholin-4-yl-ethyl)-1H-[1,2,3]triazol-4-yl]-benzenesulfonyl}-1H-pyrrol-3-yl)-acrylamide] | 0.014 to 6.7 µM |
| O=C(/C=C/c1ccn(S(=O)(=O)c2ccc(-c3cccc(C(F)(F)F)c3)cc2)c1)NO [Compound 85, (E)-N-Hydroxy-3-[1-(3′-trifluoromethyl-biphenyl-4-sulfonyl)-1H-pyrrol-3-yl]acrylamide] | 0.014 to 6.7 µM |
| O=C(C=Cc1ccn(S(=O)(=O)c2ccc(-c3ccc(OCCN4CCCC4)cc3)s2)c1)NO [Compound 99, (E)-N-Hydroxy-3-(1-{5-([4-(2-pyrrolidin-1-yl-ethoxy)-phenyl]-thiophene-2-sulfonyl}-1H-pyrrol-3-yl)-acrylamide] | 0.014 to 6.7 µM |
| CN(C)Cc1ccc(-c2cccc(S(=O)(=O)n3ccc(/C=C/C(=O)Nc4ccccc4N)c3)c2)cc1 [Compound 102, (E)-N-(2-Amino-phenyl)-3-[1-(4′-dimethylaminomethyl-biphenyl-3-sulfonyl)-1H-pyrrol-3-yl]-acrylamide] | 0.014 to 6.7 µM |
